Measurements as given in patent EP4603105A1, “PHARMACEUTICAL COMPOSITION CONTAINING CYCLIC COMPOUND HAVING SELECTIVE KRAS INHIBITORY EFFECT AGAINST HRAS AND NRAS” (CHUGAI SEIYAKU KABUSHIKI KAISHA, priority 2022, dated 2024).

Experiments:
[1] = molecular target: GDP-bound NRAS wild-type protein (Homo sapiens, UniProt P01111); test: Binding to NRAS by surface plasmon resonance (SPR), KD and KD ratio to KRAS; conditions: ratio of the KD value with respect to GDP-bound NRAS wild-type protein to the KD value with respect to KRAS
Outline: (§1)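 Running buffer contained 10 µM GDP and 10 mM MgCl2 to keep RAS in the GDP state, with 4% DMSO at pH 7.4. Compounds were flowed at 100 µL/min in 75 s steps of rising concentration over captured biotin-Avi RAS at 30°C. Sensorgrams were fitted 1:1 for KD.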

[2] = tested on: human lung cancer strain NCI-H441; assay type: cell-based
Outline: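 Step one: dispense the test compound in serial DMSO dilutions. Step three: add the reagent and measure […].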

HRAS wild-type protein = HRAS wild-type protein (Homo sapiens, UniProt P01112); test: Binding to HRAS by surface plasmon resonance (SPR), KD and KD ratio to KRAS; conditions: ratio of the KD value with respect to HRAS wild-type protein to the KD value with respect to KRAS
Outline: as §1

HRAS wild-type protein, sequence (P01112 whole entry): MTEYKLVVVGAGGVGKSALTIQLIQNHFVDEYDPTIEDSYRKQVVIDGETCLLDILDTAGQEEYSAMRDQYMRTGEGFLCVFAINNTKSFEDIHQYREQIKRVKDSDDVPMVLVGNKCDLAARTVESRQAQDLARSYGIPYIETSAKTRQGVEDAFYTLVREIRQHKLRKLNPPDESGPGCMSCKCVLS
GDP-bound NRAS wild-type protein, sequence (P01111 whole entry): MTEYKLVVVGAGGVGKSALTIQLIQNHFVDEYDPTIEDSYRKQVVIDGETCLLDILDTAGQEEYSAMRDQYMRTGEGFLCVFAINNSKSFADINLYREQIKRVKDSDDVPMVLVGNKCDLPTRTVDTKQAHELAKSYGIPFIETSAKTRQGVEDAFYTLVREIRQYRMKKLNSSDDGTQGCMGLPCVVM

Structure (SMILES) | NRAS /KRAS [1] | IC50 [2] [nM] | HRAS /KRAS (HRAS wild-type protein)
CCO[C@@H]1C[C@H]2C(=O)NC3(CC(C)(C)C3)C(=O)N(C)[C@@H](C3CCCC3)C(=O)N(C)[C@H](C(=O)N(C)C)CC(=O)N(C)[C@@H](C3CCC3)C(=O)N[C@@H]([C@@H](C)CC)C(=O)N(C)CC(=O)N(C)[C@H]3C/C=C\CCN(C3=O)[C@@H](Cc3ccc(C(F)(F)F)cc3)C(=O)N(C)CC(=O)N[C@@H](CCc3ccc(C(F)(F)F)c(OC)c3)C(=O)N2C1 [PP1987] | A (a compound having 10 or more and less than 20 is denoted as A) | 6.6 | A (a compound having 10 or more and less than 20 is denoted as A)
CCCN(C)C(=O)[C@@H]1CC(=O)N(C)[C@@H](COCC)C(=O)N[C@@H]([C@@H](C)CC)C(=O)N(C)CC(=O)N(C)[C@H]2C/C=C\CCN(C2=O)[C@@H](Cc2ccc(C(F)(F)F)cc2)C(=O)N(C)CC(=O)N[C@@H](CCc2cc(F)c(C(F)(F)F)c(F)c2)C(=O)N2C[C@H](OCC)C[C@H]2C(=O)NC2(CCC2)C(=O)N(C)[C@@H](C2CCCC2)C(=O)N1C [PP1988] | A (a compound having 10 or more and less than 20 is denoted as A) | 11 | A (a compound having 10 or more and less than 20 is denoted as A)
CCCN(C)C(=O)[C@@H]1CC(=O)N(C)[C@@H](CC(F)F)C(=O)N[C@@H]([C@@H](C)CC)C(=O)N(C)CC(=O)N(C)[C@H]2C/C=C\CCN(C2=O)[C@@H](Cc2ccc(C(F)(F)F)cc2)C(=O)N(C)CC(=O)N[C@@H](CCc2ccc(C(F)(F)F)c(OC)c2)C(=O)N2C[C@@H](C)C[C@H]2C(=O)NC2(CC(C)(C)C2)C(=O)N(C)[C@@H](C2CCCC2)C(=O)N1C [PP1989] | A (a compound having 10 or more and less than 20 is denoted as A) | 11.1 | A (a compound having 10 or more and less than 20 is denoted as A)
CCO[C@@H]1C[C@H]2C(=O)NC3(CCC3)C(=O)N(C)[C@@H](C3CCCC3)C(=O)N(C)[C@H](C(=O)N(C)CC)CC(=O)N(C)[C@@H](C(C)C)C(=O)N[C@@H]([C@@H](C)CC)C(=O)N(C)CC(=O)N(C)[C@H]3C/C=C\CCN(C3=O)[C@@H](Cc3ccc(C(F)(F)F)cc3)C(=O)N(C)CC(=O)N[C@@H](CCc3cc(F)c(C(F)(F)F)c(F)c3)C(=O)N2C1 [PP1990] | A (a compound having 10 or more and less than 20 is denoted as A) | 6.6 | A (a compound having 10 or more and less than 20 is denoted as A)
CCCN(C)C(=O)[C@@H]1CC(=O)N(C)[C@@H](COCC)C(=O)N[C@@H]([C@@H](C)CC)C(=O)N(C)CC(=O)N(C)[C@H]2C/C=C\CCN(C2=O)[C@@H](Cc2ccc(C(F)(F)F)cc2)C(=O)N(C)CC(=O)N[C@@H](CCc2ccc(C(F)(F)F)c(OC)c2)C(=O)N2C[C@@H](C)C[C@H]2C(=O)NC2(CC(C)(C)C2)C(=O)N(C)[C@@H](C2CCCC2)C(=O)N1C [PP1991] | A (a compound having 10 or more and less than 20 is denoted as A) | 10.8 | A (a compound having 10 or more and less than 20 is denoted as A)
CCCN(C)C(=O)[C@@H]1CC(=O)N(C)[C@@H](C(C)C)C(=O)N[C@@H]([C@@H](C)CC)C(=O)N(C)CC(=O)N(C)[C@H]2C/C=C\CCN(C2=O)[C@@H](Cc2ccc(C(F)(F)F)cc2)C(=O)N(C)CC(=O)N[C@@H](CCc2cc(F)c(C(F)(F)F)c(F)c2)C(=O)N2C[C@H](OCC)C[C@H]2C(=O)NC2(CCC2)C(=O)N(C)[C@@H](C2CCCC2)C(=O)N1C [PP1992] | AA (a compound having 20 or more is denoted as AA) | 17.7 | B (a compound having 3 or more and less than 10 is denoted as B)
CCOC[C@H]1C(=O)N[C@@H]([C@@H](C)CC)C(=O)N(C)CC(=O)N(C)[C@H]2C/C=C\CCN(C2=O)[C@@H](Cc2ccc(C(F)(F)F)cc2)C(=O)N(C)CC(=O)N[C@@H](CCc2ccc(C(F)(F)F)c(OC)c2)C(=O)N2C[C@@H](C)C[C@H]2C(=O)NC2(CC(C)(C)C2)C(=O)N(C)[C@@H](C2CCCC2)C(=O)N(C)[C@H](C(=O)N(C)CC)CC(=O)N1C [PP1993] | A (a compound having 10 or more and less than 20 is denoted as A) | 13.3 | A (a compound having 10 or more and less than 20 is denoted as A)
CCCN(C)C(=O)[C@@H]1CC(=O)N(C)[C@@H](C2CC2)C(=O)N[C@@H]([C@@H](C)CC)C(=O)N(C)CC(=O)N(C)[C@H]2C/C=C\CCN(C2=O)[C@@H](Cc2ccc(C(F)(F)F)cc2)C(=O)N(C)CC(=O)N[C@@H](CCc2cc(F)c(C(F)(F)F)c(F)c2)C(=O)N2C[C@H](OCC)C[C@H]2C(=O)NC2(CCC2)C(=O)N(C)[C@@H](C2CCCC2)C(=O)N1C [PP1994] | AA (a compound having 20 or more is denoted as AA) | 22.4 | A (a compound having 10 or more and less than 20 is denoted as A)
CCCOC[C@H]1C(=O)N[C@@H]([C@@H](C)CC)C(=O)N(C)CC(=O)N(C)[C@H]2C/C=C\CCN(C2=O)[C@@H](Cc2ccc(C(F)(F)F)cc2)C(=O)N(C)CC(=O)N[C@@H](CCc2ccc(C(F)(F)F)c(OC)c2)C(=O)N2C[C@@H](C)C[C@H]2C(=O)NC2(CC(C)(C)C2)C(=O)N(C)[C@@H](C2CCCC2)C(=O)N(C)[C@H](C(=O)N(C)CC)CC(=O)N1C [PP1995] | A (a compound having 10 or more and less than 20 is denoted as A) | 17.8 | B (a compound having 3 or more and less than 10 is denoted as B)
CCO[C@@H]1C[C@H]2C(=O)NC3(CCC3)C(=O)N(C)[C@@H](C3CCCC3)C(=O)N(C)[C@H](C(=O)N(C)CC)CC(=O)N(C)[C@@H](C3CCC3)C(=O)N[C@@H]([C@@H](C)CC)C(=O)N(C)CC(=O)N(C)[C@H]3C/C=C\CCN(C3=O)[C@@H](Cc3ccc(C(F)(F)F)cc3)C(=O)N(C)CC(=O)N[C@@H](CCc3cc(F)c(C(F)(F)F)c(F)c3)C(=O)N2C1 [PP1996] | A (a compound having 10 or more and less than 20 is denoted as A) | 15.5 | B (a compound having 3 or more and less than 10 is denoted as B)
CC[C@H](C)[C@@H]1NC(=O)[C@H](CCOC)N(C)C(=O)C[C@@H](C(=O)N(C)CC)N(C)C(=O)[C@H](C2CCCC2)N(C)C(=O)C2(CC(C)(C)C2)NC(=O)[C@@H]2C[C@H](C)CN2C(=O)[C@H](CCc2ccc(C(F)(F)F)c(OC)c2)NC(=O)CN(C)C(=O)[C@H](Cc2ccc(C(F)(F)F)cc2)N2CC/C=C\C[C@@H](C2=O)N(C)C(=O)CN(C)C1=O [PP1999] | A (a compound having 10 or more and less than 20 is denoted as A) | 26.6 | B (a compound having 3 or more and less than 10 is denoted as B)
CCCN(C)C(=O)[C@@H]1CC(=O)N(C)[C@@H](CC(F)F)C(=O)N[C@@H]([C@@H](C)CC)C(=O)N(C)CC(=O)N(C)[C@H]2C/C=C\CCN(C2=O)[C@@H](Cc2ccc(C(F)(F)F)cc2)C(=O)N(C)CC(=O)N[C@@H](CCc2cc(F)c(C(F)(F)F)c(F)c2)C(=O)N2C[C@@H](C)C[C@H]2C(=O)NC2(CCC2)C(=O)N(C)[C@@H](C2CCCC2)C(=O)N1C [PP2000] | A (a compound having 10 or more and less than 20 is denoted as A) | 17.7 | B (a compound having 3 or more and less than 10 is denoted as B)
CCCN(C)C(=O)[C@@H]1CC(=O)N(C)[C@@H](CCOC)C(=O)N[C@@H]([C@@H](C)CC)C(=O)N(C)CC(=O)N(C)[C@H]2C/C=C\CCN(C2=O)[C@@H](Cc2ccc(C(F)(F)F)cc2)C(=O)N(C)CC(=O)N[C@@H](CCc2ccc(C(F)(F)F)c(OC)c2)C(=O)N2C[C@@H](C)C[C@H]2C(=O)NC2(CC(C)(C)C2)C(=O)N(C)[C@@H](C2CCCC2)C(=O)N1C [PP2001] | A (a compound having 10 or more and less than 20 is denoted as A) | 18.1 | A (a compound having 10 or more and less than 20 is denoted as A)
CC[C@H](C)[C@@H]1NC(=O)[C@H](C(C)C)N(C)C(=O)C[C@@H](C(=O)N(C)CC)N(C)C(=O)[C@H](C2CCCC2)N(C)C(=O)C2(CC(C)(C)C2)NC(=O)[C@@H]2C[C@H](C)CN2C(=O)[C@H](CCc2ccc(C(F)(F)F)c(OC)c2)NC(=O)CN(C)C(=O)[C@H](Cc2ccc(C(F)(F)F)cc2)N2CC/C=C\C[C@@H](C2=O)N(C)C(=O)CN(C)C1=O [PP2003] | A (a compound having 10 or more and less than 20 is denoted as A) | 11.3 | B (a compound having 3 or more and less than 10 is denoted as B)
CC[C@H](C)[C@@H]1NC(=O)[C@H](C(C)C)N(C)C(=O)C[C@@H](C(=O)N(C)C)N(C)C(=O)[C@H](C2CCCC2)N(C)C(=O)C2(CC(C)(C)C2)NC(=O)[C@@H]2C[C@H](C)CN2C(=O)[C@H](CCc2ccc(C(F)(F)F)c(OC)c2)NC(=O)CN(C)C(=O)[C@H](Cc2ccc(C(F)(F)F)cc2)N2CC/C=C\C[C@@H](C2=O)N(C)C(=O)CN(C)C1=O [PP2005] | A (a compound having 10 or more and less than 20 is denoted as A) | 10.7 | A (a compound having 10 or more and less than 20 is denoted as A)
